From patent US20070197513A1, “Ion channel modulators” (priority 2004, published 2007)
Like-named read-outs stand apart in the source and are kept apart here.

System: calcium channel (e.g., L-type, N-type, etc.) current
Assay: HEK assay: whole-cell voltage clamp in transiently transfected HEK-293T/17 cells
Type: cell-based
Conditions: patch clamp, holding potential −100 mV, steps to about +10 mV
Procedure: HEK-293T/17 cells are transiently transfected in a similar manner as described in FuGENE 6 Package Insert Version 7, April 2002, Roche Applied Science, Indianapolis, Ind. The cells are plated at 2.5×10^5 cells in 2 mL in a 6-well plate in incubator for one night and achieve a 30 40% confluence. In a small sterile tube, add sufficient serum-free medium as diluent for FuGENE Transfection Reagent (Roche Applied Science, Indianapolis, Ind.), to a total volume of 100 μL. Add 3 μL of FuGENE 6 Reagent directly into this medium. The mixture is tapped gently to mix. 2 μg of DNA solution (0.8-2.0 μg/μL) is added to the prediluted FuGENE 6 Reagent from above. The DNA/Fugene 6 mixture is gently pipeted to mix the contents and incubated for about 15 minutes at room temperature. The complex mixture is then added to the HEK-293T/17 cells, distributing it around the well, and swirled to ensure even dispersal. The cells are returned to the incubator for 24 hrs. The transfected cells are then replated at density 2.5×10^5 in a 35 mm dish with 5 glass coverslips and grow in low serum(1%) media for 24 hrs. Coverslips with isolated cells are then transferred into chamber and calcium channel ([…].) current or other currents for counter screening are recorded from the transiently transfected HEK-293T/17 cells. The whole-cell voltage clamp configuration of the patch clamp technique is employed to evaluate voltage-dependent calcium currents essentially as described by Thompson and Wong (1991) J. Physiol., 439: 671-689. […] Table 3 contains IC50's for representative compounds.

Row | SMILES | IC50 (read-out: IC50) [nM] | IC50 [nM]
1 | COc1ccccc1-c1nc(CCN2CCCC2)cn1-c1ccc(Cl)cc1 [Compound 6] | 990 | –
2 | COc1ccccc1-c1nc(Cc2nc3ccccc3[nH]2)cn1-c1ccc(Cl)cc1 [Compound 2, 2-[1-(4-Chloro-phenyl)-2-(2-methoxy-phenyl)-1H-imidazol-4-ylmethyl]-1H-benzoimidazole] | 173 | –
3 | COc1ccccc1-c1nc(CCN(C)c2ccc(F)cc2)cn1-c1ccc(Cl)cc1 [Compound 1] | – | 46
